From ChEMBL document CHEMBL1159259, “A bioactive tetraprenylphenol from Lactarius lignyotus” (1995)

Experiments:
Type in all cases: functional
Parameters in all cases: scale not given: the % may be the effect or the level left
HeLa S3 [1] = assay: Inhibition of DNA synthesis in human HeLaS3 cells assessed as [3H]thymidine incorporation at 10.4 ug/ml after 45 mins by liquid scintillation counting
HeLa S3 [2] = assay: Inhibition of DNA synthesis in human HeLaS3 cells assessed as [3H]thymidine incorporation at 25 ug/ml after 45 mins by liquid scintillation counting
HeLa S3 [3] = assay: Inhibition of DNA synthesis in human HeLaS3 cells assessed as [3H]thymidine incorporation at 50 ug/ml after 45 mins by liquid scintillation counting
HeLa S3 [4] = assay: Inhibition of DNA synthesis in human HeLaS3 cells assessed as [3H]thymidine incorporation at 75 ug/ml after 45 mins by liquid scintillation counting
HeLa S3 [5] = assay: Inhibition of protein synthesis in human HeLaS3 cells assessed as [3H]leucine incorporation at 10.4 ug/ml after 45 mins by liquid scintillation counting
HeLa S3 [6] = assay: Inhibition of protein synthesis in human HeLaS3 cells assessed as [3H]leucine incorporation at 25 ug/ml after 45 mins by liquid scintillation counting
HeLa S3 [7] = assay: Inhibition of protein synthesis in human HeLaS3 cells assessed as [3H]leucine incorporation at 50 ug/ml after 45 mins by liquid scintillation counting
HeLa S3 [8] = assay: Inhibition of protein synthesis in human HeLaS3 cells assessed as [3H]leucine incorporation at 75 ug/ml after 45 mins by liquid scintillation counting
HeLa S3 [9] = assay: Inhibition of RNA synthesis in human HeLaS3 cells assessed as [3H]uridine incorporation at 10.4 ug/ml after 45 mins by liquid scintillation counting
HeLa S3 [10] = assay: Inhibition of RNA synthesis in human HeLaS3 cells assessed as [3H]uridine incorporation at 25 ug/ml after 45 mins by liquid scintillation counting
HeLa S3 [11] = assay: Inhibition of RNA synthesis in human HeLaS3 cells assessed as [3H]uridine incorporation at 50 ug/ml after 45 mins by liquid scintillation counting
HeLa S3 [12] = assay: Inhibition of RNA synthesis in human HeLaS3 cells assessed as [3H]uridine incorporation at 75 ug/ml after 45 mins by liquid scintillation counting
HL-60 [13] = assay: Inhibition of DNA synthesis in human HL60 cells assessed as [3H]thymidine incorporation at 10.4 ug/ml after 45 mins by liquid scintillation counting
HL-60 [14] = assay: Inhibition of DNA synthesis in human HL60 cells assessed as [3H]thymidine incorporation at 25 ug/ml after 45 mins by liquid scintillation counting
HL-60 [15] = assay: Inhibition of DNA synthesis in human HL60 cells assessed as [3H]thymidine incorporation at 50 ug/ml after 45 mins by liquid scintillation counting
HL-60 [16] = assay: Inhibition of DNA synthesis in human HL60 cells assessed as [3H]thymidine incorporation at 75 ug/ml after 45 mins by liquid scintillation counting
HL-60 [17] = assay: Inhibition of protein synthesis in human HL60 cells assessed as [3H]leucine incorporation at 10.4 ug/ml after 45 mins by liquid scintillation counting
HL-60 [18] = assay: Inhibition of protein synthesis in human HL60 cells assessed as [3H]leucine incorporation at 25 ug/ml after 45 mins by liquid scintillation counting
HL-60 [19] = assay: Inhibition of protein synthesis in human HL60 cells assessed as [3H]leucine incorporation at 50 ug/ml after 45 mins by liquid scintillation counting
HL-60 [20] = assay: Inhibition of protein synthesis in human HL60 cells assessed as [3H]leucine incorporation at 75 ug/ml after 45 mins by liquid scintillation counting
HL-60 [21] = assay: Inhibition of RNA synthesis in human HL60 cells assessed as [3H]uridine incorporation at 10.4 ug/ml after 45 mins by liquid scintillation counting
HL-60 [22] = assay: Inhibition of RNA synthesis in human HL60 cells assessed as [3H]uridine incorporation at 25 ug/ml after 45 mins by liquid scintillation counting
HL-60 [23] = assay: Inhibition of RNA synthesis in human HL60 cells assessed as [3H]uridine incorporation at 50 ug/ml after 45 mins by liquid scintillation counting
HL-60 [24] = assay: Inhibition of RNA synthesis in human HL60 cells assessed as [3H]uridine incorporation at 75 ug/ml after 45 mins by liquid scintillation counting

Compound | Activity (HeLa S3 [1]) [%] | Activity (HeLa S3 [2]) [%] | Activity (HeLa S3 [3]) [%] | Activity (HeLa S3 [4]) [%] | Activity (HeLa S3 [5]) [%] | Activity (HeLa S3 [6]) [%] | Activity (HeLa S3 [7]) [%] | Activity (HeLa S3 [8]) [%] | Activity (HeLa S3 [9]) [%] | Activity (HeLa S3 [10]) [%] | Activity (HeLa S3 [11]) [%] | Activity (HeLa S3 [12]) [%] | Activity (HL-60 [13]) [%] | Activity (HL-60 [14]) [%] | Activity (HL-60 [15]) [%] | Activity (HL-60 [16]) [%] | Activity (HL-60 [17]) [%] | Activity (HL-60 [18]) [%] | Activity (HL-60 [19]) [%] | Activity (HL-60 [20]) [%] | also measured
COc1ccc(O)c(CC=C(C)C)c1 | 100 | 59 | 70 | 31 | 96 | 43 | 38 | 37 | 97 | 86 | 91 | 90 | 64 | 32 | 14 | 1.5 | 49 | 38 | 35 | 32 | Activity (HL-60 [21]): 98%; Activity (HL-60 [22]): 50%; Activity (HL-60 [23]): 55%; Activity (HL-60 [24]): 38%
CC(C)=CCC/C(C)=C/CC/C(C)=C/CC/C(C)=C/Cc1cc(O)ccc1O [GERANYLGERANYLHYDROQUINONE] | 100 | 74 | 83 | 49 | 100 | 92 | 67 | 61 | 96 | 83 | 91 | 86 | 55 | 38 | 20 | 17 | 85 | 52 | 52 | 32 | Activity (HL-60 [21]): 95%; Activity (HL-60 [22]): 32%; Activity (HL-60 [23]): 36%; Activity (HL-60 [24]): 42%
